# Test results reported in patent US6319702A, “Nucleic acids encoding mutant human carboxypeptidase A enzymes” (Glaxo Wellcome, Inc., priority 1993, dated 2001).
# Read-outs that look alike come from different tables or passages of the source.
# T1: wild type human carboxypeptidase A1 (Homo sapiens, UniProt P15085)
# T1 sequence (P15085 111-419): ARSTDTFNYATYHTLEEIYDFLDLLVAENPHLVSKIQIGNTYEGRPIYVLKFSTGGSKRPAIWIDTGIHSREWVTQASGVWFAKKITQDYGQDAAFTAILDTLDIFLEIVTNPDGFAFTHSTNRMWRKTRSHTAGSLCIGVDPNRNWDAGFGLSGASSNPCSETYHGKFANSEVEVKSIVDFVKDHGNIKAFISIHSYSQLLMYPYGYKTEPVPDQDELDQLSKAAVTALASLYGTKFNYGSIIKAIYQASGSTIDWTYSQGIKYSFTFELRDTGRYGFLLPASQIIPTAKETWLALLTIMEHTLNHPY
# What was measured:
# [1] = biological target: T1, wild type human carboxypeptidase A1; test: Enzyme kinetics of prodrugs with wild type human carboxypeptidase A1 (coupled assay); assay type: biochemical
# From the text: (§1) As indicated herein, the in vivo stable prodrug of the present invention should be a better substrate for a mutant enzyme than the corresponding wild type enzyme in order for the stable prodrug to be activated selectively at the tumour. […] The most relevant kinetic constant in the table is the kcat/Km, which provides an estimate of the second order rate constant for the enzyme catalyzed conversion of prodrug to methotrexate. Thus, the larger the kcat/Km, the more efficient the enzyme with a particular substrate. […] Thus, the single mutation at 268 from thr to gly converted very poor substrates in the wild type enzyme to excellent substrates in the mutant enzyme. […] Thus, the compounds are much better substrates for the mutant enzyme than the wild type enzyme which permits very specific tumor targeted activation of the nontoxic, stable prodrug to the active agent.
# (§2) Kinetics were determined by a modification of the coupled assay of Kuefner, et al (1989) Biochemistry 28 2288-2297 in which the product MTX is converted by excess carboxypeptidase G to the pteroate of MTX. In this assay the reaction is followed spectrophotometrically at 315 nm; at this wavelength the change in molar absorbtivity for the coupled reaction was determined to be 9.57 mM^-1 cm^-1. Assays were performed at 25° C. in 25 mM tris-HCl, 100 mM NaCl, pH 7.4. Prodrugs were preincubated at 25° C. with buffer and 17 milliunits of Sigma #C-9658 carboxypeptidase G in 1 ml total volume. Assay was initiated with carboxypeptidase A or the appropriate mutant. Initial velocities were obtained, and standard Michaelis-Menten calculations were used to determine kinetic constants (in Biochemistry, Lehninger, A. L. 1970, Worth Publishers, Inc, NY).
# mutant enzyme = test: Substrate behaviour with mutant enzyme; assay type: biochemical, human
# From the text: This type of compound is not useful for ADEPT.
# [2] = Stability and biodistribution of prodrugs in vivo (HPLC of plasma and tissues); parameters: species or system mice (CD-1 nude; BALB/C where indicated); details: for stability in vivo (in words): mice
# 268ala = test: Enzyme kinetics of prodrugs with 268ala mutant of human CPA1 (coupled assay); assay type: biochemical; details: rate too slow to assay
# From the text: as §1, §2
# in vivo = details: mouse, iv
# 268gly = test: Enzyme kinetics of prodrugs with 268gly mutant of human CPA1 (coupled assay); assay type: biochemical
# From the text: as §1, §2
# [3] = IEF of proCPA and mature CPA; assay type: physicochemical
# Method: The final OD600 was 14. […] All subsequent buffers contained 0.1 mM Zn-acetate. […] Total protein=368 mg.
# [4] = CECUM, 30 min, 50 mg/kg i.p. or i.v., CD-1 nude mice
# [5] = CECUM, 120 min, 50 mg/kg i.p. or i.v., CD-1 nude mice
# [6] = FECES, 30 min, 50 mg/kg i.p. or i.v., CD-1 nude mice
# [7] = FECES, 120 min, 50 mg/kg i.p. or i.v., CD-1 nude mice
# [8] = KIDNEY, 30 min, 50 mg/kg i.p. or i.v., CD-1 nude mice
# [9] = LARGE INTESTINE, 120 min, 50 mg/kg i.p. or i.v., CD-1 nude mice
# [10] = LIVER, 30 min, 50 mg/kg i.p. or i.v., CD-1 nude mice
# [11] = LIVER, 120 min, 50 mg/kg i.p. or i.v., CD-1 nude mice
# [12] = SMALL INTESTINE, 30 min, 50 mg/kg i.p. or i.v., CD-1 nude mice
# [13] = SMALL INTESTINE, 120 min, 50 mg/kg i.p. or i.v., CD-1 nude mice
# [14] = mouse, cecum, 50 mg/kg, CECUM, 30 min, 50 mg/kg i.p. or i.v., CD-1 nude mice, read-out: stability: percentage of material observed as intact prodrug, cecum
# [15] = mouse, cecum, 50 mg/kg, CECUM, 120 min, 50 mg/kg i.p. or i.v., CD-1 nude mice, read-out: stability: percentage of material observed as intact prodrug, cecum
# [16] = mouse, feces, 50 mg/kg, FECES, 30 min, 50 mg/kg i.p. or i.v., CD-1 nude mice, read-out: stability: percentage of material observed as intact prodrug, feces (converted)
# [17] = mouse, feces, 50 mg/kg, FECES, 120 min, 50 mg/kg i.p. or i.v., CD-1 nude mice, read-out: stability: percentage of material observed as intact prodrug, feces
# [18] = mouse, kidney, 50 mg/kg, KIDNEY, 30 min, 50 mg/kg i.p. or i.v., CD-1 nude mice, read-out: stability: percentage of material observed as intact prodrug, kidney
# [19] = mouse, large intestine, 50 mg/kg, LARGE INTESTINE, 120 min, 50 mg/kg i.p. or i.v., CD-1 nude mice, read-out: stability: percentage of material observed as intact prodrug, large intestine
# [20] = mouse, liver, 50 mg/kg, LIVER, 30 min, 50 mg/kg i.p. or i.v., CD-1 nude mice, read-out: stability: percentage of material observed as intact prodrug, liver (converted)
# [21] = mouse, liver, 50 mg/kg, LIVER, 120 min, 50 mg/kg i.p. or i.v., CD-1 nude mice, read-out: stability: percentage of material observed as intact prodrug, liver
# [22] = mouse, plasma, 50 mg/kg, PLASMA, 30 min, 50 mg/kg i.p. or i.v., CD-1 nude mice, read-out: concentration of prodrug in plasma
# [23] = mouse, plasma, 50 mg/kg, PLASMA, 30 min, 50 mg/kg i.p. or i.v., CD-1 nude mice, read-out: stability: percentage of material observed as intact prodrug, plasma
# [24] = mouse, small intestine, 50 mg/kg, SMALL INTESTINE, 30 min, 50 mg/kg i.p. or i.v., CD-1 nude mice, read-out: stability: percentage of material observed as intact prodrug, small intestine
# [25] = mouse, small intestine, 50 mg/kg, SMALL INTESTINE, 120 min, 50 mg/kg i.p. or i.v., CD-1 nude mice, read-out: stability: percentage of material observed as intact prodrug, small intestine
molecule,measurement,setting,value
"Nc1nc(N)c(CCCNc2ccc(C(=O)N[C@@H](CCC(=O)O)C(=O)N[C@@H](Cc3cccc(C4CCCC4)c3)C(=O)O)cc2)c(=O)[nH]1 [Prodrug 14, N-(4-((3(2,4-diamino-1,6-dihydro-6-oxo-5-pyrimidinyl)propyl)amino)benzoyl)-L-glutam-1-yl-3-cyclopentyl-L-phenylalanine]",substrate for wild type CPA (in words),[1],not for the wild type enzyme
same,substrate for a mutant enzyme (in words),mutant enzyme,good substrates for a mutant enzyme
same,concentration of prodrug in cecum,[2]; [4],4.l
same,concentration of prodrug in cecum,[2]; [5],65.3 nmol/g
same,concentration of prodrug in feces,[2]; [6],535.0 nmol/g
same,concentration of prodrug in feces,[2]; [7],932.8 nmol/g
same,concentration of prodrug in kidney,[2]; [8],4.6 nmol/g
same,concentration of prodrug in large intestine,"[2]; LARGE INTESTINE, 30 min, 50 mg/kg i.p. or i.v., CD-1 nude mice",9.4 nmol/g
same,concentration of prodrug in large intestine,[2]; [9],34.6 nmol/g
same,concentration of prodrug in liver,[2]; [10],22.5 nmol/g
same,concentration of prodrug in liver,[2]; [11],42.1 nmol/g
same,concentration of prodrug in small intestine,[2]; [12],218.3 nmol/g
same,concentration of prodrug in small intestine,[2]; [13],127.8 nmol/g
same,concentration of prodrug in spleen,"[2]; SPLEEN, 30 min, 50 mg/kg i.p. or i.v., CD-1 nude mice",2.4 nmol/g
same,stability in vivo (in words),[2]; 50 mg/kg,stable in vivo
same,remaining at 0.5 h,[2]; [14],100%
same,remaining at 2 h,[2]; [15],48.8%
same,remaining at 0.5 h,[2]; [16],90.7%
same,remaining at 2 h,[2]; [17],88%
same,remaining at 0.5 h,[2]; [18],100%
same,remaining at 0.5 h,"[2]; mouse, large intestine, 50 mg/kg, LARGE INTESTINE, 30 min, 50 mg/kg i.p. or i.v., CD-1 nude mice, read-out: stability: percentage of material observed as intact prodrug, large intestine",100%
same,remaining at 2 h,[2]; [19],76.8%
same,remaining at 0.5 h,[2]; [20],100%
same,remaining at 2 h,[2]; [21],100%
same,concentration at 0.5 h,[2]; [22],1100 nM
same,remaining at 0.5 h,[2]; [23],100%
same,remaining at 0.5 h,[2]; [24],100%
same,remaining at 2 h,[2]; [25],100%
same,remaining at 0.5 h,"[2]; mouse, spleen, 50 mg/kg, SPLEEN, 30 min, 50 mg/kg i.p. or i.v., CD-1 nude mice, read-out: stability: percentage of material observed as intact prodrug, spleen",100%
"CN(Cc1cnc2nc(N)nc(N)c2n1)c1ccc(C(=O)N[C@@H](CCC(=O)O)C(=O)N[C@@H](Cc2cccc(C(C)(C)C)c2)C(=O)O)cc1 [Prodrug 12, N-(4-(((2,4-diamino-6-pterdinyl)methyl)methylamino)benzoyl)-L-glutam-1-yl-3-tert-butyl-L-phenylalanine]",kcat (symbol ND),268ala,ND (not determined; rate to slow assay. kcat ≤ 0.0005/sec.)
same,human CPA catalyzed reaction (in words),[1],not measureable
same,kcat/Km for human CPA1 compared with that of the L-phenylalanine prodrug (in words),[1],much lower
same,substrate for wild type CPA (in words),[1],not for the wild type enzyme
same,kcat (symbol ND),"[1]; Human CPA1, rate too slow to assay",ND (not determined; rate to slow assay. kcat ≤ 0.0005/sec.)
same,MTD,in vivo,> 40 mg/kg
same,NOAEL,in vivo,≥ 40 mg/kg
same,substrate for a mutant enzyme (in words),mutant enzyme,good substrates for a mutant enzyme
same,concentration of prodrug in cecum,[2]; [4],16.3 nmol/g
same,concentration of prodrug in cecum,[2]; [5],402.3 nmol/g
same,concentration of prodrug in feces,[2]; [6],1205 nmol/g
same,concentration of prodrug in feces,[2]; [7],1941 nmol/g
same,concentration of prodrug in kidney,[2]; [8],2.2 nmol/g
same,concentration of prodrug in kidney,"[2]; KIDNEY, 120 min, 50 mg/kg i.p. or i.v., CD-1 nude mice",0.2 nmol/g
same,concentration of prodrug in large intestine,[2]; [9],14.7 nmol/g
same,concentration of prodrug in liver,[2]; [10],58.6 nmol/g
same,concentration of prodrug in liver,[2]; [11],39.5 nmol/g
same,concentration of prodrug in small intestine,[2]; [12],550.8 nmol/g
same,concentration of prodrug in small intestine,[2]; [13],44.9 nmol/g
same,concentration of prodrug in tumor,"[2]; TUMOR, 30 min, 50 mg/kg i.p. or i.v., CD-1 nude mice",1.6 nmol/g
same,stability in vivo (in words),[2]; 50 mg/kg,stable in vivo
same,remaining at 0.5 h,[2]; [14],100%
same,remaining at 2 h,[2]; [15],80.7%
same,remaining at 0.5 h,[2]; [16],93%
same,remaining at 2 h,[2]; [17],82%
same,remaining at 0.5 h,[2]; [18],53.4%
same,remaining at 2 h,"[2]; mouse, kidney, 50 mg/kg, KIDNEY, 120 min, 50 mg/kg i.p. or i.v., CD-1 nude mice, read-out: stability: percentage of material observed as intact prodrug, kidney",21.6%
same,remaining at 2 h,[2]; [19],66.9%
same,remaining at 0.5 h,[2]; [20],91.3%
same,remaining at 2 h,[2]; [21],89.2%
same,concentration at 0.5 h,[2]; [22],2600 nM
same,remaining at 0.5 h,[2]; [23],100%
same,concentration at 2 h,"[2]; mouse, plasma, 50 mg/kg, PLASMA, 120 min, 50 mg/kg i.p. or i.v., CD-1 nude mice, read-out: concentration of prodrug in plasma",700 nM
same,remaining at 2 h,"[2]; mouse, plasma, 50 mg/kg, PLASMA, 120 min, 50 mg/kg i.p. or i.v., CD-1 nude mice, read-out: stability: percentage of material observed as intact prodrug, plasma",100%
same,remaining at 0.5 h,[2]; [24],91%
same,remaining at 2 h,[2]; [25],67%
same,remaining at 0.5 h,"[2]; mouse, tumor, 50 mg/kg, TUMOR, 30 min, 50 mg/kg i.p. or i.v., CD-1 nude mice, read-out: stability: percentage of material observed as intact prodrug, tumor",92.8%
same,activity of 268Gly compared with human CPA1 with the L-phenylalanine prodrug (in words),268gly,not different
same,kcat/Km,268gly; 268Gly,380000 M⁻¹ s⁻¹
same,Km,"268gly; 268gly, 25° C., pH 7.4",2.1 µM
same,kcat,"268gly; 268gly, 25° C., pH 7.4",0.81 s⁻¹
"proCPA: procarboxypeptidase A, cleaved to mature CPA with trypsin (protein, UniProt P15085 17-419, looked up, pro-form, procarboxypeptidase A, cleaved to mature CPA with trypsin) pro-form: KEDFVGHQVLRISVADEAQVQKVKELEDLEHLQLDFWRGPAHPGSPIDVRVPFPSIQAVKIFLESHGISYETMIEDVQSLLDEEQEQMFAFRSRARSTDTFNYATYHTLEEIYDFLDLLVAENPHLVSKIQIGNTYEGRPIYVLKFSTGGSKRPAIWIDTGIHSREWVTQASGVWFAKKITQDYGQDAAFTAILDTLDIFLEIVTNPDGFAFTHSTNRMWRKTRSHTAGSLCIGVDPNRNWDAGFGLSGASSNPCSETYHGKFANSEVEVKSIVDFVKDHGNIKAFISIHSYSQLLMYPYGYKTEPVPDQDELDQLSKAAVTALASLYGTKFNYGSIIKAIYQASGSTIDWTYSQGIKYSFTFELRDTGRYGFLLPASQIIPTAKETWLALLTIMEHTLNHPY",pI,[3],4.75
